Here are results for four molecules from patent publication US9238644B2, “VEGFR3 inhibitors” (CANCER THERAPEUTICS CRC PTY LIMITED, priority 2012, dated 2016).

The IC50 is the concentration needed to halve the response being measured. Low values mean greater potency in that assay, high ones weaker potency in that assay.

Assay [1] deals with VEGFR3 cytoplasmic domain (Homo sapiens, UniProt P35916). As to the kind of experiment: VEGFR3 Biochemical assay (AlphaScreen). To be noted: N-terminal GST-fusion enzyme, 500 μM ATP, 90 minutes at 30 degree Celsius (modified form: Hexa-His-fusion, 1 μM ATP).
Sequence of VEGFR3 cytoplasmic domain (P35916 25-1363 limits assumed): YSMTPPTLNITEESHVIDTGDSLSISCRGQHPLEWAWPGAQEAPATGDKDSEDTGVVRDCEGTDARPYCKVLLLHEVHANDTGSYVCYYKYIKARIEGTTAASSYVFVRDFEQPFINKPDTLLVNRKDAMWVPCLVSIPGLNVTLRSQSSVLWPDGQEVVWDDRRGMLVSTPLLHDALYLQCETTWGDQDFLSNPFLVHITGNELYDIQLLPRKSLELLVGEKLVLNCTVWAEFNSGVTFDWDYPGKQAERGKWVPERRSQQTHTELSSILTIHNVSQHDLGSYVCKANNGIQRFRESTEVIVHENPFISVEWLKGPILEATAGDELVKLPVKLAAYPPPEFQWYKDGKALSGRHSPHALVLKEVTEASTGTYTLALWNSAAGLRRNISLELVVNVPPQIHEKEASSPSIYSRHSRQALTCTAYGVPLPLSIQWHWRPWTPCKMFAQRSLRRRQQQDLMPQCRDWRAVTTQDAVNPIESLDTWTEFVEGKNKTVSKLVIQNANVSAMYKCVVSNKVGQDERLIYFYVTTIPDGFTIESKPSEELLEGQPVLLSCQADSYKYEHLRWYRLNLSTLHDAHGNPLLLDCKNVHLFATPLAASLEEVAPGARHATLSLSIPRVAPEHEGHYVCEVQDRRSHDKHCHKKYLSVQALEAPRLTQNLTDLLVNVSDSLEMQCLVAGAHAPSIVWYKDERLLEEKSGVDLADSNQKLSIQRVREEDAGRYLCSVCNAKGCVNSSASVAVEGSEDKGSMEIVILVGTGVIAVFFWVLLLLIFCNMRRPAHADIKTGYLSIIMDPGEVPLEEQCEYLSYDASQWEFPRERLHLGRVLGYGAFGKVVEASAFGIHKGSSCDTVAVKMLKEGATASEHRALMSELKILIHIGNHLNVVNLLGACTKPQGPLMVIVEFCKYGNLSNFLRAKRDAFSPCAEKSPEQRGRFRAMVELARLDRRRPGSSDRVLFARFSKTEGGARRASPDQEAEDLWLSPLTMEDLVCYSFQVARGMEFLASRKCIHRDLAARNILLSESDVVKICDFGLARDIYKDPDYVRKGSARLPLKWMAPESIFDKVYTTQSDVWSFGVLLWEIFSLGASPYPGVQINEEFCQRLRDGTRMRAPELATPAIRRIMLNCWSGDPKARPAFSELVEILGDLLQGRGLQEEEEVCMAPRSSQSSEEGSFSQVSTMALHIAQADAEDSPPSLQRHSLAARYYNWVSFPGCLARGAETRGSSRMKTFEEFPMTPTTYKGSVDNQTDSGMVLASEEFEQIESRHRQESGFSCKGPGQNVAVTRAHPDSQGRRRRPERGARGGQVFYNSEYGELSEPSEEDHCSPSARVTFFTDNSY
In assay [2] the target is VEGFR3 (Homo sapiens (Human), UniProt P35916). As to the kind of experiment: VEGFR3 Phospho ELISA assay. The note with it: HMVEC-dLyAD cells, treated 1 hour, VEGFC stimulated; phospho VEGFR3 relative to Total VEGFR3. The format is cell-based. (In general: An ELISA detects its analyte on a solid surface through an enzyme-linked reagent.)
Sequence of VEGFR3 (P35916 25-1363): as the sequence (P35916 25-1363 limits assumed) above
Method: Adult human dermal lymphatic microvascular endothelial cells (HMVEC-dLyAD) (Cat# CC-2810, Lonza) were seeded into clear-bottom, TC treated 12 well plates (Cat #665180, Greiner Bio-One) in EGM-2MV (Cat# CC-3202, Lonza) at 180,000 cells/well (volume 1 mL), and the plates incubated at 37° C. and 5% CO2 for 6 hours.
96 well Maxisorp immuno plates (Cat #439454, Nunc) were coated with 100 μL of Total VEGFR3 capture antibody (Part #841888, Human Total VEGFR3/FLT4 ELISA Kit, Cat # DYC3491, R&D Systems), or Phospho VEGFR3 Capture antibody (Part #841885, Human Phospho VEGFR3/FLT4 ELISA Kit, Cat# DYC2724, R&D Systems). The plates were covered and incubated at room temperature overnight.
The coating antibody was flicked out and the plates washed three times with Wash Buffer (Phosphate buffered saline (137 mM NaCl, 2.7 nM KCl, 8.1 nM Na2HPO4, 1.5 mL KH2PO4, pH 7.2-7.4), 0.05% Tween 20). 300 μL of blocking buffer (5% v/v Tween 20, 5% w/v sucrose in PBS) was then added to wells and plate incubated for 2 hours at room temperature. Blocking solution is flicked out and plates washed three times and tapped dry.
Compound dilution series were prepared in EBM-2 (Cat # CC-3156, Lonza)+0.1% BSA (Cat# A8412, Sigma) with constant 0.1% DMSO concentration. […]
Total VEGFR3 levels were quantified using a Multiskan Ascent plate reader and Ascent software fitted with 450 nm filter. […]
Assay [3] addresses VEGFR2 (Homo sapiens (Human), UniProt P35968). The assay is described as follows: VEGFR2 Phospho ELISA assay. To be noted: HUVEC, treated 1 hour, VEGF stimulated; phospho VEGFR2 relative to Total VEGFR2.

Each structure is given as a SMILES string.

Sequence of VEGFR2 (P35968 20-1356): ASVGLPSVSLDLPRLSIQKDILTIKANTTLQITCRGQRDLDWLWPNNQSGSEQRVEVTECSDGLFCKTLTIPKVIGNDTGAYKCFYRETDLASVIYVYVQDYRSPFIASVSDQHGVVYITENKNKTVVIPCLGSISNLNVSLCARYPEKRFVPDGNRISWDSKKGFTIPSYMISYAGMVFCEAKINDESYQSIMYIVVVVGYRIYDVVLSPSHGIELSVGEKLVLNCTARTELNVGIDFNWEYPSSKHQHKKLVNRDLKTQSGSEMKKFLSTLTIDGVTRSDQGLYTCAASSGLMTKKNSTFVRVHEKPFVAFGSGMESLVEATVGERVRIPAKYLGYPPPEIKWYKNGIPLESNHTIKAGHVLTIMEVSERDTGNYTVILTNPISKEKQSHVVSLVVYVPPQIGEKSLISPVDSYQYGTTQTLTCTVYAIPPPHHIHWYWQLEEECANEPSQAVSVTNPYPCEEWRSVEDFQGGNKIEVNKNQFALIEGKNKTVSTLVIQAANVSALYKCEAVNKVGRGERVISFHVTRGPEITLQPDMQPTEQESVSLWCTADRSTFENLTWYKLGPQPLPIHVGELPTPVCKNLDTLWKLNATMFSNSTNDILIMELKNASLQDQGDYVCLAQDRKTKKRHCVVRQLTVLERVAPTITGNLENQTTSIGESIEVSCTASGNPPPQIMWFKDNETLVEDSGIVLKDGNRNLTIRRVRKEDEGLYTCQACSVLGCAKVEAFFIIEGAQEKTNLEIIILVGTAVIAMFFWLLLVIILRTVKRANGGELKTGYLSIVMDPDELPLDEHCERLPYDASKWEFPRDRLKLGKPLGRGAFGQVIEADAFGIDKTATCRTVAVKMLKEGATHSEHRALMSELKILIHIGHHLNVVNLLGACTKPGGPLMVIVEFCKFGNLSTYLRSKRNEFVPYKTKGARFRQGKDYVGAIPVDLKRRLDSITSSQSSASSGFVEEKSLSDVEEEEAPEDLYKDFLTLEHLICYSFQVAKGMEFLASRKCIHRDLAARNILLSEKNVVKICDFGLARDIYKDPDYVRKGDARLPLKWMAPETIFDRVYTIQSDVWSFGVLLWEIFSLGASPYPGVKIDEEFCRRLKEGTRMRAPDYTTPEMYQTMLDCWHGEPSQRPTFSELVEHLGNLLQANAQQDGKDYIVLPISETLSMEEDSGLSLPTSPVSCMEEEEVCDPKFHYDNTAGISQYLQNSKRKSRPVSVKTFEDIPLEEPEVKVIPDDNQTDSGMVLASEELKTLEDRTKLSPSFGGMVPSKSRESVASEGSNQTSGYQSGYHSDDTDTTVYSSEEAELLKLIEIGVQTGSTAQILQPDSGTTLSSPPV

As to `CCC(C(N)=O)c1ccccc1CCc1nc(Nc2ccc(C3CCNCC3)cc2)ncc1C(F)(F)F` (racemic) [Compound 1, 2-(2-(2-(2-((4-(piperidin-4-yl)phenyl)amino)-5-(trifluoromethyl)pyrimidin-4-yl)ethyl)phenyl)butanamide], the results for the IC50 in assay [1], in assay [2] and in assay [3] were 91 nM, 173 nM and greater than 10000 nM, respectively. `CC(C(N)=O)c1ccccc1CCc1nc(Nc2cnn(C3CCNCC3)c2)ncc1C(F)(F)F` (racemic) [Compound 56, 2-(2-(2-(2-((1-(piperidin-4-yl)-1H-pyrazol-4-yl)amino)-5-(trifluoromethyl)pyrimidin-4-yl)ethyl)phenyl)propanamide] displayed an IC50 in assay [3] of 2220 nM. Still for that read-out and setting: the figure for `CC(C(N)=O)c1ccccc1CCc1nc(Nc2cnn(C3CCN(C)CC3)c2)ncc1C(F)(F)F` (single isomer, unassigned) [Compound 57-2A, 2-(2-(2-(2-((1-(1-Methylpiperidin-4-yl)-1H-pyrazol-4-yl)amino)-5-(trifluoromethyl)pyrimidin-4-yl)ethyl)phenyl)propanamide] is 382 nM. Molecule `NC(=O)C1(c2ccccc2CCc2nc(Nc3ccc(C(F)(F)F)nc3)ncc2C(F)(F)F)CC1` [Compound 10] had a concentration for half-maximal inhibition (IC50) in assay [1] of 92 nM.
